From patent US11597708B2, “Inhibitors of heat shock factors and uses thereof” (HSF Pharmaceuticals SA, priority 2016, dated 2023) come the findings set out here.

Where a name gives a salt, the structure may show the parent alone. Read-outs that look alike come from different tables or passages of the source.

This experiment concerns the target T1, HSF1 (Homo sapiens, UniProt Q00613).
T1 construct: functionally linked to an hsp70b promoter and therefore controlled by endogenous HSF1; endogenous in cells; host or cells: HeLa cells / HeLa-derived cell line Z74
T1 sequence (Q00613 1-529): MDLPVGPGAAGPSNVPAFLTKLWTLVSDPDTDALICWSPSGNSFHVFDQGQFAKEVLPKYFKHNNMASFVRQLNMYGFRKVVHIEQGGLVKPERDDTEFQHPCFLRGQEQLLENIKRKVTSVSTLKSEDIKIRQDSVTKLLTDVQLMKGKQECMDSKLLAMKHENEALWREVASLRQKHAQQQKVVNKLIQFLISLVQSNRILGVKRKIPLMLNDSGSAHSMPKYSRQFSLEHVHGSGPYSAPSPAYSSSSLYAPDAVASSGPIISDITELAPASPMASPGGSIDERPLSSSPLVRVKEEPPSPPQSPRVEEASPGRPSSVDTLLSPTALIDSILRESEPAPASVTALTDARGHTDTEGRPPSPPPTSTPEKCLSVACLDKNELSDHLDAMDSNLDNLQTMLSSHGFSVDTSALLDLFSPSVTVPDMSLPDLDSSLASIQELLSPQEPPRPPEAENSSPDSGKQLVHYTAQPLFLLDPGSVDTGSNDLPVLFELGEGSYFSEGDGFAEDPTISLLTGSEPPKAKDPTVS
In words: Z74 cell-based reporter assay: heat-induced RLuc expression controlled by endogenous HSF1. The note with it: for inhibition at 12.5 µM: read-out: Inhibition of HSF1 activity at 12.5 μM IHSF [RLuc] (%); for inhibition at 25 µM: read-out: Inhibition of HSF1 activity at 25 μM IHSF [RLuc] (%); for IC50: inhibition of HSF1 activity [RLuc]. From the text: For screening this sublibrary, a cell-based assay was developed. We opted for a cell-based assay, because a cell-free assay would have had to be a DNA-binding assay. Such an assay would have limited discovery to molecules capable of interfering with the DNA-binding function of HSF1. This was thought to be too narrow a focus, considering that three of the four cavities identified in the HSF1 DNA-binding domain are not near the DNA interaction region. A straightforward cell-based assay, in which a HSF1-responsive gene would be assayed, was considered likely to be over-inclusive. Compounds would be scored as hits that inhibit any factor that is involved in HSF1 activation or prevents HSF1 deactivation. These factors include protein kinases, activators of protein phosphatases, factors affecting HSF1 mRNA stability, HSP90, HDAC6, etc. For developing a more discriminating cell-based assay, advantage was taken of the modular nature of HSF1. […] The cell-based assay developed (see below for the particular format employed) compared transactivation by wild type HSF1 and chimeric HSF1 in cells exposed to an HSF1-activating heat treatment in the presence of a sublibrary compound. A compound was scored as a hit, if it inhibited the activity of wild type HSF1 but not of chimeric HSF1.
The cell-based assay made use of HeLa-derived cell line Z74 that stably contains a gene for chimeric transcription factor LexA-(human) HSF1 under the control of a CMV early promoter, a firefly luciferase (flue) gene driven by a promoter responsive to the latter chimeric transcription factor and a Renilla luciferase (rluc) gene functionally linked to an hsp70b promoter and therefore controlled by endogenous HSF1 (FIG. 1A). As is shown in FIGS. 1B & C, the reporter genes responded similarly to heat dose, i.e., their activation depended on both duration of heat exposure and temperature of the exposure. […] Depletion of HSF1 (and LexA-HSF1) by siRNA supported the notion that this stress regulation is mediated by HSF1 (and LexA-HSF1). Therefore, the Z74 line was well suited for use in a screening assay aimed at discovering molecules that inhibit heat-induced HSF1 activity through interaction with the transcription factor's DNA-binding domain.
The compounds of the afore-mentioned biased sublibrary were screened in cell line Z74 at 12.5 and 25 μM concentrations. Typically, Z74 cultures in 96-well plates were exposed to compound or vehicle for 2 h, heat-treated at 43.0° C. for 30 min, and incubated further for 6 h at 37° C. to allow for accumulation of the luciferases. RLuc and FLuc activities were determined, typically using the Dual-Glo® Luciferase Assay System (Promega Corp., Madison, Wis.), and reading luciferase light counts in a Wallac Microbeta Trilux-1450 Luminometer (PerkinElmer, Waltham, Mass.). IHSF 001 was one of two library compounds that inhibited RLuc expression but not FLuc expression in heat-treated Z74 cells (Table 1; FIG. 2A). Therefore, IHSF 001 is an inhibitor of HSF1 function that specifically acts through the HSF1 DNA-binding domain. […] A corroborating experiment utilized a cell line containing an hsp70b promoter-driven fluc gene. […] IHSF 001 is (E)-ethyl 4-oxo-4-(thiazol-2-ylamino)but-2-enoate. The compound can be obtained from commercial sources (e.g., AKE-PB-90340538, Akos).
In general terms: A reporter such as luciferase makes a cellular process visible.

[1] abbreviates: Z74 cells, 12.5 μM IHSF, negative values marked *: compound enhanced rLuc activity.
[2] abbreviates: Z74 cells, 25 μM IHSF, 2 h exposure, 43° C. 30 min, 6 h at 37° C.

In general, inhibition refers to the relative decrease from the control value, in per cent. For `CCNC(=O)/C=C/C(=O)Nc1nccs1` [IHSF 030, (E)-But-2-enedioic acid ethylamide thiazol-2-ylamide], the inhibition at 12.5 µM under setting [1] amounted to 5%. The inhibition at 25 µM under setting [2] came out at 18%.
By IC50 is commonly meant the concentration that gives 50% inhibition. Low readings indicate inhibition by little substance, high ones a need for much substance. Turning to `CCOC(=O)/C=C/C(=O)Nc1nc(-c2ccccc2)cs1` [IHSF 012, (E)-3-(4-Phenyl-thiazol-2-ylcarbamoyl)-acrylic acid ethyl ester], the IC50 (Z74 cells) came to 11.3 µM. The inhibition at 12.5 µM under setting [1] amounted to 68%. Also, under setting [2], the inhibition at 25 µM was 86%.
Regarding `CCOC(=O)/C=C/C(=O)Nc1ccnc(-c2cccc(C)c2)c1` [IHSF 080, (E)-3-(2-m-Tolyl-pyridin-4-ylcarbamoyl)-acrylic acid ethyl ester], the inhibition at 12.5 µM under setting [1] turned out to be 55%. Besides, the inhibition at 25 µM under setting [2] is 71%.
For the compound `CCOC(=O)/C=C/C(=O)Nc1ncc(C)s1` [IHSF 013, (E)-3-(5-Methyl-thiazol-2-ylcarbamoyl)-acrylic acid ethyl ester], the inhibition at 12.5 µM under setting [1] was found to be 34%. The inhibition at 25 µM under setting [2] is 50%.
On the same counts, the results for `CCOC(=O)/C=C/C(=O)Nc1ccnc(-c2cccnc2)c1` [IHSF 086, (E)-3-([2,3′]Bipyridmyl-4-ylcarbamoyl)-acrylic acid ethyl ester] are 47% and 78%.
Consider `CCOC(=O)/C=C/C(=O)N(CCN1CCOCC1)c1nccs1` [IHSF 101, (E)-3-[(2-Morpholin-4-yl-ethyl)-thiazol-2-yl-carbamoyl]-acrylic acid ethyl ester], for which, for the setting “Z74 cells”, the IC50 was greater than 25 µM. In addition, the inhibition at 12.5 µM under setting [1] was -30%. For the same compound, under setting [2], the inhibition at 25 µM is 48%.
For the compound `O=C(/C=C/C1=NCCCO1)Nc1nccs1` [IHSF 090, (E)-3-(5,6-Dihydro-4H-[1,3]oxazin-2-yl)-N-thiazol-2-yl-acrylamide], half-maximal inhibition (Z74 cells) (IC50) required 5.4 µM. Further, the inhibition at 12.5 µM under setting [1] was determined as 78%. Besides, the inhibition at 25 µM under setting [2] is 98%.
`CCOC(=O)/C=C/C(=O)N(CCc1cn(C)cn1)c1nccs1` [IHSF 108] gave an IC50 (Z74 cells) of 19.6 µM. Besides, under setting [1], the inhibition at 12.5 µM is -6%. Further, under setting [2], the inhibition at 25 µM was 89%.
For `CCOC(=O)/C=C/C(=O)Nc1ccnc(-c2ccc(C)cc2)c1` [IHSF 081, (E)-3-(2-p-Tolyl-pyridin-4-ylcarbamoyl)-acrylic acid ethyl ester formic acid salt], the inhibition at 12.5 µM amounted to 42% and the inhibition at 25 µM came to 65%.
`CCOC(=O)/C=C/C(=O)Nc1nc(-c2ccncc2)cs1` [IHSF 056, (E)-3-(4-Pyridin-4-yl-thiazol-2-lcarbamoyl)-acrylic acid ethyl ester]: the IC50 (Z74 cells) stood at 19.8 µM. Under setting [1], the inhibition at 12.5 µM was 35%. Under setting [2], the inhibition at 25 µM amounted to 61%.
For the setting “Z74 cells”, `O=C(/C=C/c1nnco1)Nc1nccs1` [IHSF 091, (E)-3-(1,3,4-Oxadiazol-2-yl)-N-(thiazol-2-yl)acrylamide] showed an IC50 greater than 25 µM. The inhibition at 12.5 µM under setting [1] was 22%. For the same compound, the inhibition at 25 µM under setting [2] was 27%.
Take `CCOC(=O)/C=C/C(=O)Nc1cnc(-c2ccccc2)s1` [IHSF 045, (E)-3-(2-Phenyl-thiazol-5-ylcarbamoyl)-acrylic acid ethyl ester]: under setting [1], the inhibition at 12.5 µM stood at 34%. Further, the inhibition at 25 µM under setting [2] is 53%.
As to `CCCCOC(=O)/C=C/C(=O)Nc1nccs1` [IHSF 042, (E)-3-(Thiazol-2-ylcarbamoyl)-acrylic acid butyl ester], the inhibition at 12.5 µM under setting [1] is 1%. In addition, the inhibition at 25 µM under setting [2] was found to be 52%.
On to `CCOC(=O)/C=C/C(=O)Nc1nc(C(N)=O)c(-c2ccccc2)s1` [IHSF 109, (E)-3-(4-Carbamoyl-5-phenyl-thiazol-2-ylcarbamoyl)-acrylic acid ethyl ester], for which it took 11.2 µM to reach half-maximal inhibition (Z74 cells) (IC50). The inhibition at 12.5 µM under setting [1] was 53%. Under setting [2], the inhibition at 25 µM came out at 88%.
`CCOC(=O)/C=C/C(=O)Nc1nc(-c2cccnc2)cs1` [IHSF 055, (E)-3-(4-Pyridin-3-yl-thiazol-2-ylcarbamoyl)-acrylic acid ethyl ester] came in with an IC50 (Z74 cells) of 18.7 µM. The inhibition at 12.5 µM under setting [1] was found to be 27%. The inhibition at 25 µM under setting [2] stood at 74%.
On to `CCOC(=O)/C=C/C(=O)N(CCc1ccccn1)c1nccs1` [IHSF 112, (E)-3-[(2-Pyridin-2-yl-ethyl)-thiazol-2-yl-carbamoyl]-acrylic acid ethyl ester], for which the IC50 (Z74 cells) was greater than 25 µM. Further, the inhibition at 12.5 µM under setting [1] stood at 13%. In addition, under setting [2], the inhibition at 25 µM was determined as 26%.
With `CCOC(=O)/C=C/C(=O)Nc1ccnc(-c2ccccc2C)c1` [IHSF 079, (E)-3-(2-o-Tolyl-pyridin-4-ylcarbamoyl)-acrylic acid ethyl ester], the inhibition at 12.5 µM under setting [1] was determined as 42%. The inhibition at 25 µM under setting [2] was 79%.
Under “Z74 cells”, `CCOC(=O)/C=C/C(=O)N(CCc1ccncc1)c1nccs1` [IHSF 099, (E)-3-[(2-Pyridin-4-yl-ethyl)-thiazol-2-yl-carbamoyl]-acrylic acid ethyl ester] displayed an IC50 of 18 µM. The inhibition at 12.5 µM under setting [1] was 17%. Moreover, the inhibition at 25 µM under setting [2] came to 95%.
With `CCOC(=O)/C=C/C(=O)Nc1cc(C)no1` [IHSF 046, (E)-3-(3-Methyl-isoxazol-5-ylcarbamoyl)-acrylic acid ethyl ester], under setting [1], the inhibition at 12.5 µM was 33%. The inhibition at 25 µM under setting [2] was found to be 70%.
As to `CCOC(=O)/C=C/C(=O)Nc1nc(-c2ccccn2)cs1` [IHSF 054, (E)-3-(4-Pyridin-2-yl-thiazol-2-ylcarbamoyl)-acrylic acid ethyl ester], the IC50 (Z74 cells) was determined as 20.2 µM. Further, under setting [1], the inhibition at 12.5 µM is 22%. The inhibition at 25 µM under setting [2] came out at 69%.
As for `COC(=O)/C=C/C(=O)Nc1nccs1` [IHSF 027, (E)-3-(Thiazol-2-ylcarbamoyl)-acrylic acid methyl ester], the inhibition at 12.5 µM under setting [1] is 18%. Moreover, under setting [2], the inhibition at 25 µM was 42%.
Consider `CCOC(=O)/C=C/C(=O)Nc1nc2ccccc2s1` [IHSF 010, (E)-3-(Benzothiazol-2-ylcarbamoyl)-acrylic acid ethyl ester], for which, under setting [1], the inhibition at 12.5 µM is 56%. In addition, the inhibition at 25 µM under setting [2] came to 56%.
With `O=C(/C=C/c1ncno1)Nc1nccs1` [IHSF 089, (E)-3-(1,2,4-Oxadiazol-5-yl)-N-(thiazol-2-yl)acrylamide], the IC50 (Z74 cells) was 17.9 µM. In addition, the inhibition at 12.5 µM under setting [1] came out at 41%. Moreover, under setting [2], the inhibition at 25 µM was 61%.
As to `CCOC(=O)/C=C/C(=O)Nc1ncco1` [IHSF 015, (E)-3-(Oxazol-2-ylcarbamoyl)-acrylic acid ethyl ester], the inhibition at 12.5 µM under setting [1] was 0%. For the same compound, the inhibition at 25 µM under setting [2] is 20%.
Turning to `CCOC(=O)/C=C/C(=O)Nc1ccnc(-c2ccncc2)c1` [IHSF 076, (E)-3-([2,4′]Bipyridinyl-4-ylcarbamoyl)-acrylic acid ethyl ester], the inhibition at 12.5 µM under setting [1] turned out to be 56%. Under setting [2], the inhibition at 25 µM is 66%.
